Experimental data published in patent publication EP0863156A1, “Peptides useful as somatostatin antagonists” (American Cyanamid Company, priority 1997, dated 1998).
Square brackets hold non-standard residues; d marks the D form. Peptide text beside a SMILES is read from it.

Experiments:
[1] = target: T1, SRIF receptors (Rattus norvegicus, UniProt P30680); assay: Yeast bioassay for SRIF antagonist activity (zone of growth inhibition of LY364 cells growing in response to SRIF); format: cell-based; conditions: 10 µL of 5 mg/mL on filter disk, S-14 10 nM
T1 construct: expressed in transfected cells; host or cells: Saccharomyces cerevisiae strain LY364
Protocol: Agar plates containing LY364 cells that are growing in the presence of added SRIF are the basis for a sensitive SRIF antagonist assay, whereby zones of growth inhibition result from the addition of SRIF antagonists to the surface of the agar plate (see L.A. Price, et al., Molecular and Cellular Biology, 15, 6188-6195, 1995, incorporated herein by reference).
In this assay, LY364 cells are grown overnight in 2 mL of synthetic complete(SC) medium (3.4 g/L YNB without amino acids and ammonium sulfate, 10 g/L ammonium sulfate and 1.4 g/L CSM-ura-trp) with glucose (2%) and without uracil and tryptophan. These cells are washed and cultured for 4 to 8 hours in 5 mL of SC medium with lactate (3%) and without uracil and tryptophan, and finally grown overnight in 5 mL of SC medium with galactose (2%) and without uracil and tryptophan. Molten (50° C) SC agar medium with galactose (2%) and without uracil, tryptophan and histidine is adjusted to pH 6.8 with KOH, mixed with 2 x 10^4 cells/mL and SRIF (S-14, 10 nM) and poured into square (20 x 20 cm) petri dishes. Sterile filter disks are placed on the surface of the agar, and saturated with 10 µL of water or DMSO containing 5 mg/mL test peptides. After three days, the plates display a uniform cloudy background of […] cells growing in response to the added SRIF. […] This zone is quantified by measuring its diameter (mm), which varies according to the potency of the SRIF antagonist. Those peptides or mixtures of peptides displaying the largest zones of inhibition are further characterized.
Values are compared among samples in the same experiment, as the degree of yeast growth varies somewhat from assay to assay. For the first five sample types, in which progressively less complex mixtures of peptides are found, this assay is the primary determining factor in choosing which samples form the basis of subsequent syntheses.
Plates are read after 3 days. Samples shown in Table I in bold type are chosen for further synthesis. In Table I, all amino acids are D-amino acids and dashes represent undefined amino acid residues.

[2] = target: SSTR2 (Rattus norvegicus, UniProt P30680); assay: cAMP accumulation in forskolin-stimulated GH4C1/SSTR2 cells (SPA radioimmunoassay); format: cell-based; set-up: expressed in transfected cells; host or cells: GH4C1 rat pituitary tumor cells (GH4C1/SSTR2); conditions: in the absence of SRIF (inverse agonist activity)
Description: A primary effect of SRIF upon mammalian cells is the reduction of cyclic adenosine 3',5'-monophosphate(cAMP) levels, via inhibition of adenylyl cyclase. This is the basis of a common assay for SRIF agonists and antagonists, whereby SRIF agonists reduce artificially stimulated cAMP levels, and SRIF antagonists reverse the effect of SRIF. The rat pituitary tumor cell line GH4C1 predominantly expresses SSTR2, and responds to SRIF and to forskolin, a stimulator of adenylate cyclase (see C.M. Eppler, et al., J. Biol. Chem., 267, 15603-15612, 1992, incorporated herein by reference). […] This increases the response to SRIF and provides a greater dynamic range for the measurement of SRIF antagonist activity.
Stimulation of cells. GH4C1/SSTR2 cells, grown in DMEM with 10% bovine serum, are released from a tissue culture dish by incubation for several minutes at 37° C with PBS containing 0.5 mM EDTA. Cells are washed in induction buffer (PBS containing 100 µM IBMX (an inhibitor of cAMP breakdown) and 2 mM CaCl2) at room temperature, and resuspended at 2 x 10^6/mL in induction buffer. Into each well of a 96-well tray are added 50 µL of a 2 X concentration of stimulants in induction buffer. […] Baseline cAMP levels are determined in samples with no added forskolin or SRIF, and each treatment is performed in triplicate.
cAMP assay. […] The 96-well tray is sealed, shaken at room temperature overnight and measured for bound radioligand in a MicroBeta liquid scintillation counter (Wallac, Gaithersburg. MD). The standard curve is determined for each experiment by performing a nonlinear regression (exponential decay) analysis of cpm measured for the cAMP standards vs. their log concentrations, and test sample values are determined by using Prism software (Graphpad Software Inc., San Diego, CA) and are shown in Table II and Figure 1.
The intrinsic activity of an SRIF antagonist is the percent reversal of the SSTR2 activation by SRIF or MK678, wherein 0% is defined by cAMP levels in samples treated with forskolin plus SRIF or MK678 and 100% is the cAMP level measured after treatment with forskolin alone. […]

T1 sequence (P30680 whole entry): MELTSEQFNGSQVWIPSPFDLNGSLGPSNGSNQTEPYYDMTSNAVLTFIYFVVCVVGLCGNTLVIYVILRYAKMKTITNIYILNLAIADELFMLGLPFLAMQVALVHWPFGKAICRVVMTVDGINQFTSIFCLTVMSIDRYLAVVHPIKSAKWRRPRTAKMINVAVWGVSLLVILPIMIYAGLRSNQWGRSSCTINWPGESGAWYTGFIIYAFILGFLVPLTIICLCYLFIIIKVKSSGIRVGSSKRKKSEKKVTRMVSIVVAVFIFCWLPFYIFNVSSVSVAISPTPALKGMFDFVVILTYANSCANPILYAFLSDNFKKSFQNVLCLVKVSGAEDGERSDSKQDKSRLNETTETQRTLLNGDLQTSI
Chain of SSTR2 (P30680 whole entry): as above

Yeast Assay (mm) ([1]; Table III, diameter of zone of growth inhibition): 20 mm
Inhibition Zone (mm) ([1]; sample type 4th iteration, read after 3 days, compare only within same experiment): 18 mm
Structure (SMILES): CC[C@@H](C)[C@@H](NC(=O)[C@@H](Cc1ccccc1)NC(=O)[C@@H](Cc1c[nH]cn1)NC(C)=O)C(=O)N[C@H](CCCNC(=N)N)C(=O)N[C@H](Cc1c[nH]c2ccccc12)C(=O)N[C@H](Cc1ccccc1)C(N)=O [Peptide 1, Ac-D-His-D-Phe-D-Ile-D-Arg-D-Trp-D-Phe-NH2] (Ac-[dH][dF][dI][dR][dW][dF]-NH2)
forskolin-stimulated cAMP levels [2]: increase in forskolin-stimulated cAMP levels
